Measured values as given in patent US20200038600A1, “DEVICE AND METHOD FOR DRUG DELIVERY” (Insuline Medical Ltd., priority 2016, published 2020).
Like-named read-outs stand apart in the source and are kept apart here.

Experiments:
[1] = target: T1, albumin (Homo sapiens, UniProt P02768); settings: once in the circulation; cited from earlier work
T1 construct: host or cells: endogenous albumin of the bloodstream

[2] = test system: Type I diabetes subjects; assay: Effect of heating or cooling the injection site on blood glucose after basal insulin (LANTUS) injection (FIG. 19); type: in vivo, human; settings: for ΔBG_2H, blood glucose excursion change from control / ΔBG_3H, blood glucose excursion change from control / ΔBG_4H, blood glucose excursion change from control: fasting
Excerpt: FIG. 19 is a graph showing results of a study of the effect of applying a treatment (cooling or heating) for regulating the absorption of a drug (insulin) on an analyte level (insulin and/or blood glucose level) over time measured in minutes.
The experiment tests the effect of treatment (e.g. cooling and heating) at the injection site on insulin and glucose blood levels during nine hours following long acting, basal insulin (LANTUS) injection. The tested treatments included heating the skin over the injection site to 40° C. and cooling the skin over the injection site to 20° C. Each subject underwent three procedures during three different days including control, heating and cooling in random order, thus each subject served as his/her own control.
Type I diabetes subjects under fasting conditions injected their usual basal insulin dose which is intended to keep their blood glucose level stable. Two hours after injection a stabilization period commenced in which a subject's blood glucose levels was adjusted to a target blood glucose level using IV insulin or IV glucose administration. The starting glucose level was 150 mg/dl±20 mg/dl. […] In the two testing days the heating or cooling elements were attached to the injection site and heating or cooling was started for a period of four hours and no intervention (besides the treatment, i.e. cooling or heating) was performed during this period. The procedure continued for another two hours without intervention. On the control day no intervention or treatment was applied. During the whole procedure blood samples were collected for blood glucose and insulin concentration measurements every 20 minutes. Safety limits of the study were 75 mg/dl as the low limit, and 250 mg/dl as the high limit. If the subject's blood glucose level was below 75 mg/dl, then a 10% glucose solution was given intravenously to increase the subject's blood glucose level. If the subject's blood glucose level was above 250 mg/dl then IV insulin was given to reduce blood glucose level.

[3] = test system: diabetes subjects; assay: Effect of cooling the injection site on blood glucose after basal insulin (LANTUS) injection (FIG. 20); type: in vivo, human
Procedure: FIG. 20 is a graph showing results of a study of the effect of applying cooling for regulating the absorption of a drug (insulin) on an analyte level (insulin and/or blood glucose level) over time measured in minutes.
The diabetes subjects under fasting conditions injected their usual basal insulin dose (LANTUS) which is intended to keep their blood glucose level stable. […] Cooling commenced at 2 hours and was applied for 3 hours successfully raising he blood glucose level back to 142 mg/dl.

[4] = cited from earlier work

T1 sequence (P02768 25-609): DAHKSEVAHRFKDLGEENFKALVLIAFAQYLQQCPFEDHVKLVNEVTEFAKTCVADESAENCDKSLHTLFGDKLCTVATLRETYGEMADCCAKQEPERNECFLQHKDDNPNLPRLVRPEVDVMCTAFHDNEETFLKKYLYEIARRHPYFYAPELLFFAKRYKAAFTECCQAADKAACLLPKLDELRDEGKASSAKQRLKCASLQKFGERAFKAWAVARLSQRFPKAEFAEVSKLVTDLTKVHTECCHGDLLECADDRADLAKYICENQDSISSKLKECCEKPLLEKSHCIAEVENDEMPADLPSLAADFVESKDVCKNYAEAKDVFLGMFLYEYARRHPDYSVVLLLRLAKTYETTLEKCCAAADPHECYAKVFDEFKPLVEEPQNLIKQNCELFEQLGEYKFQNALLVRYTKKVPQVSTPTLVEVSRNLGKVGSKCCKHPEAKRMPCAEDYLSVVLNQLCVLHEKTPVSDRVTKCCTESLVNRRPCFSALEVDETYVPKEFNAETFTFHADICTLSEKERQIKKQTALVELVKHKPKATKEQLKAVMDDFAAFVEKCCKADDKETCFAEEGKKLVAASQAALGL

## insulin detemir
[1]
  albumin bound: 98%

## insulin glargine [LANTUS]
[2]; applying cooling to the injection site (text b295)
  increase in blood glucose levels: 25 mg/dL
[2]; applying heat to the injection site (text b295)
  average decrease in blood glucose compared to no treatment at all: 40 mg/dL
[2]; cooling skin over injection site to 20° C., after 2 hours
  ΔBG_2H, blood glucose excursion change from control: +30 mg/dl
[2]; cooling skin over injection site to 20° C., after 3 hours
  ΔBG_3H, blood glucose excursion change from control: +42 mg/dl
[2]; cooling skin over injection site to 20° C., after 4 hours
  ΔBG_4H, blood glucose excursion change from control: +50 mg/dl
[2]; cooling the injection site
  blood glucose levels over time (FIG. 19): increased
[2]; cooling the injection site, after 2 hours
  increase in blood glucose compared to no intervention: about 42 mg/dl
[2]; cooling the injection site, after 3 hours
  increase in blood glucose compared to no intervention: ~59 mg/dL
[2]; cooling the injection site, after 4 hours
  increase in blood glucose compared to no intervention: ~65 mg/dL
[2]; heating skin over injection site to 40° C., after 2 hours
  ΔBG_2H, blood glucose excursion change from control: -29 mg/dL
[2]; heating skin over injection site to 40° C., after 3 hours
  ΔBG_3H, blood glucose excursion change from control: -32 mg/dL
[2]; heating skin over injection site to 40° C., after 4 hours
  ΔBG_4H, blood glucose excursion change from control: -32 mg/dL
[2]; heating the injection site
  blood glucose levels over time (FIG. 19): decreased
[2]; heating the injection site, after 2 hours
  average decrease in blood glucose compared to no intervention: 15 mg/dL
[2]; heating the injection site, after 3 hours
  average decrease in blood glucose compared to no intervention: 21 mg/dL
[2]; heating the injection site, after 4 hours
  average decrease in blood glucose compared to no intervention: 26 mg/dL
[2]; no intervention applied to the injection site
  blood glucose levels over time (FIG. 19): stable around the base line
[3]; after cooling applied for 3 hours, commenced at 2 hours
  blood glucose level: 142 mg/dL
[3]; at injection, fasting
  initial blood glucose level: 143 mg/dL
[3]; within 2 hours after injection, before cooling
  blood glucose level: 94 mg/dL
[4]; neutral pH (pH 7.4)
  solubility: forms precipitates
[4]; pH 4
  solubility: soluble
